# Publication PMC4234445 (ACS Medicinal Chemistry Letters, 2014)
# “Also recorded” adds a separate entry of the source.
# Legend:
# MCL-1 = test: Western blot of STAT5 transcriptional target MCL-1 in K562 cells; type: cell-based, human; settings: 24 h, 15 μM
# JAK1/2, ABL, and FLT-3 = test: DiscoveRx KINOMEscan, upstream STAT5 activating kinases; type: binding; settings: 5 μM
# MYC = test: Western blot of STAT5 transcriptional target MYC in K562 cells; type: cell-based, human; settings: 5 h
# pSTAT3 = test: Western blot of pSTAT3 in MDA-MB-231 cells; type: cell-based
# [1] = test system: healthy human CD34+ umbilical cord cells; test: Cell viability in healthy human CD34+ umbilical cord cells; type: cell-based
# K562 cells = test: Western blot of apoptosis markers; type: cell-based, human; settings: 24 h, 15 μM
# MV-4;11 (FLT3-ITD) cells = test: CellTiter-Blue cell viability assay in MV-4; type: cell-based, human
# [2] = test system: phosphorylated STAT5 (Y694); test: Western blot of phosphorylated STAT5; type: cell-based, human; settings: K562 cells, 5 h treatment
compound,measurement,setting,value
CC(C)(C)c1cc(CN(C(=O)CN(Cc2ccc(Cl)cc2)S(=O)(=O)c2c(F)c(F)c(F)c(F)c2F)c2ccc(C(=O)O)c(O)c2)cc(C(C)(C)C)c1 [13a],MCL-1 expression,MCL-1,complete knockdown
same,"effect against upstream STAT5 activating kinases JAK1/2, ABL, FLT-3","JAK1/2, ABL, and FLT-3",negligible effects
same,MYC (c-Myc) expression,MYC,dose-dependent decreases; also recorded: Knockdown
same,pSTAT3 inhibition,"pSTAT3; MDA-MB-231, doses corresponding to pSTAT5 inhibition in leukemic cell line",not inhibited
same,effect on pSTAT3,"pSTAT3; MDA-MB-231 cells, up to 20 μM",no effect
same,difference in sensitivity CD34+ vs MV4-11 (therapeutic window),[1],approximate order of magnitude
same,cell viability of healthy CD34+ cells,[1]; 10 μM,little reduction in cell viability; also recorded: limited effect on cell viability
same,"cell death / apoptosis (cleaved PARP-1, Caspase-3)",K562 cells,undergo cell death; also recorded: Initiation of apoptosis
same,cell viability of MV4-11 cells,MV-4;11 (FLT3-ITD) cells; 10 μM,abolished
same,IC50,"MV-4;11 (FLT3-ITD) cells; Homo sapiens, MV4-11, 72 h, read-out: IC50, cell viability MV4;11",3.5 µM
same,concentration at which pSTAT5 is ablated,[2],above 10 μM
same,pSTAT5 (Y694) levels,[2],decreased pSTAT5 in a dose dependent manner
